{"source": "patent US8846643B2", "about": "“Phosphonates with reduced toxicity for treatment of viral infections” (The Regents of the University of California, priority 2010, dated 2014)", "key": {"[1]": {"system": "HCV genotype 1b replicon (BM4-5)", "assay": "anti-HCV activity in genotype 1b replicon (BM4-5)", "format": "cell-based, hepatitis C virus", "settings": "Hepatitis C virus, BM4-5, read-out: EC50 (μM) BM4-5(1b)"}, "HCMV": {"system": "HCMV", "settings": "data from Beadle et al.; cited from earlier work"}, "HIV-1NL43": {"system": "HIV-1NL43", "assay": "HIV-1 replication in human peripheral blood mononuclear cells", "format": "cell-based", "settings": "HIV-1 infected human PBMCs"}, "MT-2 cells": {"system": "MT-2 cells", "assay": "cytotoxicity in MT-2 cells", "settings": "MT-2 cells"}, "[2]": {"assay": "cytotoxicity in MT-2 cells", "settings": "human"}, "[3]": {"assay": "cytotoxicity (CC50) in HCV replicon cells / Huh 7.5 liver cells", "settings": "human"}, "Vaccinia": {"system": "Vaccinia", "settings": "reported previously; read-out: EC50 for vaccinia inhibition; cited from earlier work"}, "[4]": {"system": "HCV genotype 2a replicon (JFH-1)", "assay": "anti-HCV activity in genotype 2a replicon (JFH-1)", "format": "cell-based, hepatitis C virus", "settings": "Hepatitis C virus, read-out: EC50 (μM) JFH-1 (2a)"}, "in vitro": {"assay": "in vitro", "settings": "human, HFF fibroblasts"}, "Cowpox": {"system": "Cowpox", "settings": "data from Beadle et al.; cited from earlier work"}, "HIV-1": {"system": "HIV-1", "assay": "microbe, parasite or virus in culture", "settings": "Human immunodeficiency virus 1, MT2"}}}
{"smiles": "CCCCCCCCCCCCCCCCCCOCCOP(=O)(O)CO[C@H](CO)Cn1cnc2c(N)ncnc21", "note": "[Cmpd 1, octadecyloxyethyl 9-(S)-[3-hydroxy-2-(phosphonomethoxy)propyl]adenine, reference compound]", "values": [{"measurement": "EC50", "setting": "[1]", "value": "1.55 ± 0.5", "unit": "µM"}, {"measurement": "EC50", "setting": "HCMV", "value": "0.003 ± 0.001", "unit": "µM"}, {"measurement": "activity against HIV-1 in human PBMCs (in words)", "setting": "HIV-1NL43", "value": "highly active and selective"}, {"measurement": "CC50", "setting": "MT-2 cells", "value": 33, "unit": "nM"}, {"measurement": "CC50", "setting": "[2]", "value": "30 ± 20", "unit": "nM"}, {"measurement": "CC50", "setting": "[3]", "value": 35600, "unit": "nM"}, {"measurement": "EC50", "setting": "Vaccinia", "value": 20, "unit": "nM"}, {"measurement": "EC50", "setting": "[4]", "value": "1.65 ± 0.33", "unit": "µM"}, {"measurement": "CC50", "setting": "in vitro", "value": "580 ± 300", "unit": "nM"}, {"measurement": "EC50", "setting": "Cowpox", "value": "0.05 ± 0.04", "unit": "µM"}, {"measurement": "EC50", "setting": "HIV-1", "value": 0.1, "unit": "nM"}]}
